From patent US20060160791A1, “Wood preservative formulations” (priority 1999, published 2006) come the findings set out here.

The test concerns soft rot fungi belonging to the groups Ascomycotina and Deuteromycotina. In words: Soft rot soil burial test on treated beech blocks (similar to ENV-807, toxic limits per EN113). The note with it: for Toxic Limit Value: active ingredient retention, beech blocks, John Innes No. 2 compost, 14 weeks at 28° C, lower-upper limits spanning pass/fail (>3% mass loss); for Effective Retention of Tebuconazole: tebuconazole retention needed.

Text: The toxic limit value for a particular biocidal compound is the concentration of the compound which is required to prevent degradation (defined as >3% mass loss) of a substrate by a target organism. Toxic limits are normally expressed as two experimentally-determined concentrations that span the pass/fail point of the test. The toxic index is the midpoint of these two values.
A convenient method of assessing the synergistic properties of a formulation is to use a ‘synergistic index’. This may be defined as: [formula]
The theoretical toxic index may be calculated by interpolation to the theoretical line of action. A SI of 1 indicates no synergism. As the SI increases, so the degree of synergism also increases.
Testing was carried out to determine the performance of active ingredients alone and in mixture using a soft rot soil burial method.
Beech (Fagus sylvatica) blocks measuring 5×5×30 mm were prepared from local grown, seasoned, knot-free sapwood. After oven drying and weighing, the blocks were vacuum impregnated (in groups of 6 replicates) with retentions of the test preservatives which had been freshly prepared using deionised water as the diluent.
After treatment, the blocks were covered with polythene for a period of one week to reduce the drying rate and allow any fixation reactions to occur. They were then fully ventilated by standing on the laboratory bench for 2 weeks and allowed to dry.
Each series of blocks was then exposed in John Innes (No. 2) compost, previously wetted to 110% of water holding capacity using deionised water. The test systems were then incubated for 14 weeks at 28° C.
Following incubation, blocks were removed from the soil, gently rinsed in clean water and then oven dried and re-weighed.
Preservative retention and weight change data were calculated for each block and the results expressed as toxic limit values according to the criteria laid down in the test method EN113.
Where the lower toxic limit value provides a weight loss of 10% m/m or greater, then the upper toxic limit value has been used to indicate the probable effective retention of preservative; this is in accordance with EN113.

`[O-][S+]1CCON=C1c1cc2ccccc2s1` (stereo not shown) [Bethoxazin, 3-(benzo[b]thien-2-yl)-5,6-dihydro-1,4,2-oxathiazine 4-oxide]: the “Toxic Limit Value” is given as over 0.77 kgm^−3. Besides, where the note is “bethoxazin retention needed, alone or as part of the named mixture, EN113 conventions”, the “Effective Retention of Bethoxazin” value is reported as over 0.77 kgm^−3.
Take `CC(C1CC1)C(O)(Cn1cncn1)c1ccc(Cl)cc1` (stereo not drawn) [Cyproconazole, (2RS,3RS; 2RS,3SR)-2-(4-chlorophenyl)-3-cyclopropyl-1-(1H-1,2,4-triazol-1-yl)butan-2-ol]: the “Effective Retention of Cyproconazole” value (cyproconazole retention needed, alone or as part of the named mixture, EN113 conventions) is 1.25 kgm^−3.
For the compound `CCCC1COC(Cn2cncn2)(c2ccc(Cl)cc2Cl)O1` (stereo not shown) [Propiconazole, 1-[[2-(2-4-dichlorophenyl)-4-propyl-1,3-dioxolan-2-yl]methyl]-1H-1,2,4-triazole], the “Toxic Limit Value” is on record as over 7.0 kgm^−3. In addition, the “Effective Retention of Propiconazole” value (propiconazole retention needed, alone or as part of the named mixture, EN113 conventions) was over 7.0 kgm^−3.
In the case of `CC(C)(C)C(O)(CCc1ccc(Cl)cc1)Cn1cncn1` (stereo not drawn) [Tebuconazole, alpha-[2-(4-chlorophenyl)ethyl]-alpha(1,1-dimethylethyl)-1H-1,2,4-triazole-1-ethanol], the “Toxic Limit Value” is on record as over 7.0 kgm^−3. Besides, the “Effective Retention of Tebuconazole” value (alone or as part of the named mixture, EN113 conventions) is reported as over 7.0 kgm^−3. In addition, the “Effective Retention of Tebuconazole” value (alone or as part of the named mixture, EN113 conventions, listed as tebuconazole) is over 7 kgm^−3.
For “N,N-didecyl-N-methyl-poly(oxyethyl)ammonium propionate [Bardap 26]”, the “Toxic Limit Value” was over 6.2 kgm^−3. The “Effective Retention of Bardap 26” value (Bardap 26 retention needed, alone or as part of the named mixture, EN113 conventions) is given as over 6.2 kgm^−3.
